Where “and” joins values, the source holds several entries; their conditions need not be identical. Identical values can stand only once.
Tested on: 926638-142-R-J1-PDC complex spheroid viability
Assay: Anticancer human tumor 926638-142-R-J1-PDC patient-derived endometrial carcinoma cell line growth inhibition [POLQ]
Conditions: for viability, T/C: stronger effect = lower value; for IC50: curve of compound
Protocol: Multicellular complex tumor spheroid response to Polymerase (POL) inhibitors (novobiocin, ART-558, RP6685) in combination with a variety of drugs and investigational agents in selected tumor cell lines
The POL inhibitors (novobiocin, ART-558, and RP6685) were evaluated both individually and in combination with standard of care and investigational anticancer small molecules within a complex spheroid model of solid tumors. . Complex spheroids include a stromal component modeled by human endothelial cells (HUVEC) and fibroblasts modeled by human mesenchymal stem cells (MSCs). The concentration ranges selected for each drug and investigational agent were based upon clinically achievable concentrations if the clinical Cmax of the agent was known.
Compounds. The drugs and investigational agents: novobiocin (NSC847541), ART-558 (NSC835418), RP-6685 (NSC848927), peposertib (NSC802822), ceralasertib (NSC780249), elimusertib (NSC800525), camonsertib (NSC841442), AZD-1390 (NSC803789), olaparib (NSC753686), talazoparib (NSC767125), rucaparib (NSC756644), sotorasib (NSC818433), MRTX-1133 (NSC836407), SN-38 (NSC673596), topotecan (NSC609699), epotoside (NSC141540), doxorubicin (NSC123127), gemcitabine (NSC613327), 5-fluorouracil (NSC19893), paclitaxel (NSC125973), vemurafenib (NSC761431), MSA-2 (NSC828583), SN-011 (NSC837082), adavosertib (NSC754352), prexasertib (NSC758257), carboplatin (NSC241240) and oxaliplatin (NSC266046), were obtained from the National Cancer Institute (NCI) Developmental Therapeutics Program Chemical Repository (21). The FDA-approved anticancer drug set is available from the Developmental Therapeutics Program at https://dtp.cancer.gov/organization/dscb/obtaining/. […] The stock solutions were prepared in dimethyl sulfoxide (DMSO, Sigma-Aldrich, St. Louis, MO, cat. D2650), except for the platinum compounds which were prepared in saline (Quality Biological, Gaithersburg, MD, cat. 114-055-101), at 800-fold the tested concentration and stored at -70 degrees C prior to their use. All drugs and investigational agents were tested over a range starting from a high concentration at or near the clinical Cmax and decreasing in half-log increments. If the clinical Cmax for an agent had not been determined, the highest concentration tested was 10 microM, except for SN-38, which was tested at a high concentration of 1 microM.
Cell Culture. All cells were maintained in an incubator at 37 degrees C and 5% CO2 with 95% humidity. The PDC lines were cultured according to standard operating procedures established by the NCI PDMR (https://pdmr.cancer.gov). Table 3 of the manuscript, lists the cell lines along with the number of the three cell types plated to form the mct-spheroids and media for tumor cell growth. After thawing, all PDC lines, except 997537-175-T-J1-PDC and 415267-285-R-J2-PDC, were cultured in Matrigel-coated flasks prepared with a working solution of 1X Ham's F-12 nutrient mix, without supplementation (Thermo Fisher Scientific, cat. 11765054), 100 U/mL penicillin-streptomycin (Thermo Fisher Scientific, cat. 15140122), and 2.5% Matrigel (Corning Inc., Corning, NY, cat. 354248) for the first three passages. The two PDC lines 997537-175-T-J1-PDC and 415267-285-R-J2-PDC were cultured on uncoated flasks. The 857933-349-R-J2-PDC line was cultured in 6C/Colon 1B media containing advanced DMEM/F-12 (Thermo Fisher Scientific, cat. 12634028), 10 mM HEPES (Thermo Fisher Scientific, cat. 15630080), 1X GlutaMAX supplement (Thermo Fisher Scientific, cat. 35050061), 0.1 mg/mL primocin (InvivoGen, San Diego, CA, cat. ant-pm-2), 10% defined fetal bovine serum, heat inactivated (HyClone Laboratories Inc., Logan, UT, cat. SH30070.03HI), 50% L-WRN conditioned media (ATCC, cat. CRL-3276), 1.25 mM N-Acetyl-L-cysteine (Sigma-Aldrich, cat. A9165), 10 mM nicotinamide (Sigma-Aldrich, cat. N0636), 1X B-27 supplement (Thermo Fisher Scientific, cat. 17504044), 1X N-2 supplement (Thermo Fisher Scientific, cat. […]
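Also: spheroids exposed to drugs for one week before readout.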
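For viability, T/C in this document: percent viability relative to DMSO vehicle control wells set as 100%.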

Structure (SMILES)	viability, T/C (compound 0.0316 µM)	viability, T/C (compound 0.1 µM)	viability, T/C (compound 0.316 µM)	viability, T/C (compound 1 µM)	viability, T/C (compound 3.16 µM)	viability, T/C (compound 10 µM)	IC50	viability, T/C (compound 0.00316 µM)	viability, T/C (compound 0.01 µM)	viability, T/C (compound 0.00949 µM)	viability, T/C (compound 0.03 µM)	viability, T/C (compound 0.0949 µM)	viability, T/C (compound 0.3 µM)	viability, T/C (compound 0.949 µM)	viability, T/C (compound 3 µM)	viability, T/C (compound 0.000316 µM)	viability, T/C (compound 0.001 µM)
C#Cc1c(F)ccc2cc(O)cc(-c3ncc4c(N5CC6CCC(C5)N6)nc(OCC56CCCN5CC(F)C6)nc4c3F)c12 (stereo unspecified)	85.1% and 98.5% and 86.6%	88.2% and 90.2% and 93.3%	79.4% and 92.4% and 73.8%	78.3% and 69.2% and 77.4%	65.5% and 80.2% and 60.2%	52.5% (2×) and 67.8%	> 10000 nM	–	–	–	–	–	–	–	–	–	–
C=CC(=O)N1CCN(c2nc(=O)n(-c3c(C)ccnc3C(C)C)c3nc(-c4c(O)cccc4F)c(F)cc23)C(C)C1 (stereo unspecified)	73.8% and 100% and 104%	88.7% and 83.5% and 89.7%	75.7% and 108% and 103%	82.7% and 84.2% and 86.3%	72.6% and 88% and 81%	58.7% and 55% and 55.7%	> 10000 nM	–	–	–	–	–	–	–	–	–	–
C=CCn1c(=O)c2cnc(Nc3ccc(N4CCN(C)CC4)cc3)nc2n1-c1cccc(C(C)(C)O)n1	99.2% and 71.9% and 92.3%	95.8% and 78.3% and 77%	47.6% and 50.2% and 49%	36.5% and 43.9% and 48.2%	–	–	296 nM and 541 nM and 300 nM	85% and 93.8% and 95.4%	80.4% and 77.2% and 83.5%	–	–	–	–	–	–	–	–
CC(=O)O[C@H]1C(=O)[C@@]2(C)[C@H]([C@H](OC(=O)c3ccccc3)[C@]3(O)C[C@H](OC(=O)[C@H](O)[C@@H](NC(=O)c4ccccc4)c4ccccc4)C(C)=C1C3(C)C)[C@]1(OC(C)=O)CO[C@@H]1C[C@@H]2O	–	–	–	–	–	–	> 3000 nM	–	–	82.5% and 94% and 68.4%	63.2% and 60.2% and 77.5%	57.1% and 53.2% and 62.2%	55% and 53.9% and 68.9%	61.5% and 52.6% and 56%	44.7% and 45.7% and 57.5%	–	–
CC(C)n1c(=O)n(C)c2cnc3cc(F)c(-c4ccc(OCCCN5CCCCC5)nc4)cc3c21	98.1% and 96.9% and 85.4%	99.6% and 92.2% and 101%	78.3% and 94.7% and 126%	101% and 93.6% and 113%	89.7% and 80.9% and 94.1%	51.1% and 73.2% and 92.8%	> 10000 nM	–	–	–	–	–	–	–	–	–	–
CC1COCCN1c1cc(-c2ccnn2C)c2ccnc(-c3ccn[nH]3)c2n1 (stereo unspecified)	83.5% and 103% and 85.4%	79.7% and 81.4% and 63.6%	55.4% and 57.6% and 51.2%	31.7% and 36.2% and 33%	13.4% and 11.8% and 14.9%	6.95% and 8.69% and 9.29%	435 nM and 450 nM and 287 nM	–	–	–	–	–	–	–	–	–	–
CC1COCCN1c1cc(C2(O)CC3CCC(C2)O3)c2cnn(-c3ccn[nH]3)c2n1 (stereo unspecified)	91.2% and 96.2% and 105%	64.1% and 73.2% and 58.2%	37% and 33.6% and 36.9%	12.2% and 13.1% and 15.8%	6.85% and 6.69% and 9.86%	2.36% and 3.68% and 4.18%	178 nM and 198 nM and 156 nM	–	–	–	–	–	–	–	–	–	–
CC1COCCN1c1cc(C2(S(C)(=N)=O)CC2)nc(-c2ccnc3[nH]ccc23)n1 (stereo unspecified)	103% and 96.2% and 125%	100% and 97.9% and 87.2%	94.2% and 87.3% and 90%	88.5% and 93.7% and 95%	64.7% and 71.3% and 62.5%	32.1% and 35.3% and 33.8%	5380 nM and 6230 nM and 5460 nM	–	–	–	–	–	–	–	–	–	–
CCCS(=O)(=O)Nc1ccc(F)c(C(=O)c2c[nH]c3ncc(-c4ccc(Cl)cc4)cc23)c1F	104% and 88.4% and 90.9%	107% and 99.6% and 92.5%	96.6% and 97% and 86%	98.3% and 106% and 94.4%	88.2% and 76.9% and 82%	50.4% and 47.4% and 51.5%	> 10000 nM and 9030 nM	–	–	–	–	–	–	–	–	–	–
CC[C@@]1(O)C(=O)OCc2c1cc1n(c2=O)Cc2cc3c(CN(C)C)c(O)ccc3nc2-1	68.5% and 73.5% and 62%	43.1% and 49% and 41.8%	–	–	–	–	72.3 nM and > 100 nM and 63.1 nM	86.8% and 84.1% and 78.3%	72.1% and 81.6% and 70.2%	–	–	–	–	–	–	92.4% and 102% and 103%	87.4% and 90.6% and 84.2%
CCc1c2c(nc3ccc(O)cc13)-c1cc3c(c(=O)n1C2)COC(=O)[C@]3(O)CC	39% and 39.6% and 38.6%	24.9% and 26.6% and 21%	10.9% and 16.3% and 8.99%	4.17% and 12.3% and 5.58%	–	–	10 nM and 7.31 nM and 12.5 nM	65.4% and 62.4% and 71.3%	46.9% and 39.7% and 51.1%	–	–	–	–	–	–	–	–
CCc1cc2c(N3CCc4c(cc(Cn5ccnc5)cc4-c4cn(C)nc4C(F)(F)F)C3=O)cc(C)nc2c(OC)n1	76.6% and 76.9% and 72.4%	62.2% and 66.4% and 61.3%	52.8% and 62% and 51.8%	42% and 51.2% and 48.4%	26.5% and 38% and 43%	23.4% and 35.1% and 33.4%	373 nM and 987 nM and 595 nM	–	–	–	–	–	–	–	–	–	–
CCc1cc2c(N3CCc4c(cc(Cn5ccnc5)cc4-c4cn(C)nc4C(F)(F)F)C3=O)ccnc2c(OC)n1	60.9% and 84.9% and 79%	79.4% and 67.7% and 61%	48% and 59.9% and 64.8%	43.1% and 45% and 49.4%	25.4% and 39.3% and 37.3%	27.3% and 29.5% and 28.1%	456 nM and 714 nM and 921 nM	–	–	–	–	–	–	–	–	–	–

— PubChem BioAssay AID1963826 (Molecular Pharmacology Branch, DTP, NCI, 2024)
